# Assay results reported in PMC6646405, “A quantitative, high-throughput method identifies protein–glycan interactions via mass spectrometry” (Communications Biology, 2019).
# “And” between values parts separate entries of the source, which are not always exact repeats. Equal values may be shown once.
# Tests used:
# [1] = molecular target: Cholera toxin B subunit homopentamer (CTB5) (Vibrio cholerae serotype O1, UniProt P01556); assay type: binding
# [2] = molecular target: Sambucus nigra lectin (SNA) (Sambucus nigra, UniProt Q41358); assay type: binding
# [3] = molecular target: T1, human siglec-2 (CD22) (Homo sapiens, UniProt P20273); assay: CUPRA library screening and affinity, siglec-2; assay type: binding; conditions: for average DI: mean of 4 DIi values
# T1 construct: Residues 1–332 of human Siglec-2 (MW 140 kDa, purity > 95%) were cloned in frame with human IgG1 Fc and a C-terminal His6; made in house
# T1 sequence (P20273 20-332): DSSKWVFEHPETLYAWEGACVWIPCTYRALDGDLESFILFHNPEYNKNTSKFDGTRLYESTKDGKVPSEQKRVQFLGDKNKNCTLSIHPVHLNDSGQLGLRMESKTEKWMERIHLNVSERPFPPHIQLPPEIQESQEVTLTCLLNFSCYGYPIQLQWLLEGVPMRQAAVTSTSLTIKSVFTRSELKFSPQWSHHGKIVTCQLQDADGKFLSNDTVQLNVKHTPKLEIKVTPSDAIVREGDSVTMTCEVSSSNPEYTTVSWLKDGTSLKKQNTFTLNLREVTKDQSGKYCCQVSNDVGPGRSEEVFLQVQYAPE
# [4] = molecular target: streptavidin homotetramer (S4) (Streptomyces avidinii, UniProt P22629); assay: CUPRA library screening against negative control streptavidin; assay type: binding; set-up: key: ratio change on GBP addition; ~1.0 = no binding (negative control); conditions: depletion index, 50 μM streptavidin
# [5] = test system: family 51 carbohydrate binding module (CBM51); assay: CUPRA library screening and affinity, CBM51; conditions: 25uM CBM51; mean of 4 DIi values, FigS3a
# Method: (§1) Unless otherwise noted, the measurements were performed at 25 °C. […] We identified specific ligands from the depletion index (DIi, Eq. 1) – the change in the fractional abundance (Fi, Eq. 2) ratio of ligand i-bound and free ^UniPproxy ions upon addition of GBP. Prior to calculating Fi, we treated each mass spectrum with the Sliding Window Adducts Removal Method (SWARM)[18] to remove contributions to the abundance of ^UniPproxy -OS^mod complex ions from adducts, formed by the ESI process, of neighbouring complex ions (Supplementary Fig. 2). Shown in Fig. 2a is a summary of the DIi measured by CUPRA screening of the 66-component library against S4 (50 μM). As expected, the average DIi for this negative control is close to 1.0 (0.99 ± 0.03). In contrast, CUPRA screening against the positive controls produced decreases in DIi for one or more of the library components. […] Application of CUPRA to human CD22, part of an important class of Neu5Ac-binding GBPs implicated in both innate and adaptive immunity, correctly identified HMO08 as a ligand (Supplementary Fig. 4a). CUPRA screening of MAA at high concentration (50 μM) identified HMO03 and GA06 as ligands. […]
# (§2) Using SWARM-treated mass spectra, DIi was calculated for each ligand from the ratio of the fractional abundances (Fi) of ligand (i)-bound and free ^UniPproxy ions in the presence (+GBP) and absence (-GBP) of GBP, Eqs. […]
# [6] = molecular target: human carbonic anhydrase type 1 (Homo sapiens, UniProt P00915); assay: Direct ESI-MS affinity of OSmod for the universal proxy protein (UniPproxy)
# [7] = test system: Maackia amurensis lectins (MAA); assay: CUPRA library screening and affinity, MAA; assay type: binding; conditions: 50uM MAA; mean of 4 DIi values, FigS3c
# Method: as §1, §2
# Chain of Cholera toxin B subunit homopentamer (CTB5) (P01556 22-124 limits assumed): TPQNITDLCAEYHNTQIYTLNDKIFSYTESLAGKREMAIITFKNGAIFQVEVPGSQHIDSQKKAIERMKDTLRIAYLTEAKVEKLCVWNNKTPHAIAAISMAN
# Chain of streptavidin homotetramer (S4) (P22629 25-183): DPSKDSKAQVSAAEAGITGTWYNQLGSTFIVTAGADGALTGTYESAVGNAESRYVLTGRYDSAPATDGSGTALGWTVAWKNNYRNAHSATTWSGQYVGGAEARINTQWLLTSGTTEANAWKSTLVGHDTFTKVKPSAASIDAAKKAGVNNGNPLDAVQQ
# Chain of Sambucus nigra lectin (SNA) (Q41358 309-570 limits assumed): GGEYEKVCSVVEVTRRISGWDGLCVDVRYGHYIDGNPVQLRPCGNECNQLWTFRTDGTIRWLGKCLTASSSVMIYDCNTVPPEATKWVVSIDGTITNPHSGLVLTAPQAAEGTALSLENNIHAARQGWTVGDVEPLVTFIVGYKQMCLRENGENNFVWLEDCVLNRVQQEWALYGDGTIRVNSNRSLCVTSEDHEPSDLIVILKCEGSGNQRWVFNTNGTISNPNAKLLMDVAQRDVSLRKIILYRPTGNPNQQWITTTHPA
# Chain of Sambucus nigra lectin (SNA) (Q41358 29-289 partner limits assumed): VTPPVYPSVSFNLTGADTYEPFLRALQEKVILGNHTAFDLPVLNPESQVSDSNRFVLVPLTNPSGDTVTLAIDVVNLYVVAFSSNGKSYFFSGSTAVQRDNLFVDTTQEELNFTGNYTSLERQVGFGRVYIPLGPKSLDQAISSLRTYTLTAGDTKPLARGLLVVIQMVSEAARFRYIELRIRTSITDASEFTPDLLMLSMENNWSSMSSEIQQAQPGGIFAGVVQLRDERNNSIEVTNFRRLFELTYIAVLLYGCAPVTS
# Chain of human carbonic anhydrase type 1 (P00915 whole entry): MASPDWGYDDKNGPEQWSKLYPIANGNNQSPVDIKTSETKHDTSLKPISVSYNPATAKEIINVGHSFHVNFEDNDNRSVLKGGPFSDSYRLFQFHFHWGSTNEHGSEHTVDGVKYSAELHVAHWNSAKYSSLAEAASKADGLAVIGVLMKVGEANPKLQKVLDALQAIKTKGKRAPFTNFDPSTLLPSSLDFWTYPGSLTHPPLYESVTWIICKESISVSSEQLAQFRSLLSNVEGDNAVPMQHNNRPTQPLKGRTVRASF
structure (smiles),measurement,setting,value
"CC(=O)N(CCOCCOCCNC(=O)C(Cc1ccccc1)NC(=O)C(Cc1ccccc1)NC(=O)CCCC(=O)NCCc1ccc(S(N)(=O)=O)cc1)C1OC(CO)C(OC2OC(CO)C(O)C(O)C2O)C(O)C1O (stereo not drawn) [HMO01, Galβ1-4Glc-CL]",DIi(2uM CTB5),[1],0.9935 and 0.9881 and 0.9983 and 0.9929
same,DIi(10uM CTB5),[1],0.9693 and 0.964 and 0.9533 and 0.9481
same,DIi(10uM CTB5 at 0C),[1],1.005 and 0.995 and 1.012 and 1.002
same,average DI,[1],0.9932 and 0.9587 and 1.004
same,DIi(5uM SNA),[2],1.0284 and 1.03 and 1.033 and 1.035
same,average DI,[2],1.032
same,average DI,[3]; 25uM CD22,1.013
same,DIi(25uM CD22),"[3]; 25uM CD22, replicate column 1 of 4",1.023
same,DIi(25uM CD22),"[3]; 25uM CD22, replicate column 2 of 4",1.029
same,DIi(25uM CD22),"[3]; 25uM CD22, replicate column 3 of 4",0.9963
same,DIi(25uM CD22),"[3]; 25uM CD22, replicate column 4 of 4",1.002
same,average DI,[3]; 25uM CD22 at 0C,1.021
same,DIi(25uM CD22 at 0C),"[3]; 25uM CD22 at 0C, replicate column 1 of 4",1.003
same,DIi(25uM CD22 at 0C),"[3]; 25uM CD22 at 0C, replicate column 2 of 4",1.007
same,DIi(25uM CD22 at 0C),"[3]; 25uM CD22 at 0C, replicate column 3 of 4",1.036
same,DIi(25uM CD22 at 0C),"[3]; 25uM CD22 at 0C, replicate column 4 of 4",1.04
same,average DI,[4]; mean of 4,0.9888
same,DIi(50uM S4),[4]; measurement 1 of 4,0.9878
same,DIi(50uM S4),[4]; measurement 2 of 4,0.986
same,DIi(50uM S4),[4]; measurement 3 of 4,0.9917
same,DIi(50uM S4),[4]; measurement 4 of 4,0.9898
same,average DI,[5],1.026
same,Kd,[6],5.1 ± 1.4 µM
same,average DI,[7],1.065
